| melting point [°C] | SMILES |
| --- | --- |
| 111 to 113 | CS(=O)(=O)c1c[nH]nc1C(CCCC(=O)C1CCCCC1)CO[N+](=O)[O-] (stereo not drawn) |
| 90 to 92 | COC(=O)CC[C@@H](NC(=O)[C@H](CO)NC(=O)OC(C)(C)C)C(=O)OC |
| 176 to 178 | COC(=O)CCc1nsc2ccc(-n3c(=O)cc(C(F)(F)F)n(C)c3=O)cc12 |
| 119 to 121 | COc1cccc(C(=O)C=C(SC)SC)c1 |
| 114 to 115 | CN1CCN(C(=O)c2cc(N)cc(C(F)(F)F)c2)CC1 |
| 160 | CS(=O)c1cc(CCC(=O)OC(C)(C)C)nc(-c2nc(=O)c3ccccc3s2)c1 (stereo not drawn) |
| 47 to 48 | C=CC(CSCCC(F)(F)C(F)(F)C(F)(F)C(F)(F)C(F)(F)C(F)(F)F)SSc1nc2ccccc2s1 (stereo not drawn) |
| 257 to 259 | CC1(C)CC(=O)c2c(ncc3[nH]c4cc(Cl)ccc4c23)C1 |
| 158 to 160 | CC(C)(C)OC(=O)CCc1cccc(-c2nc(=O)c3ccc(F)cc3s2)n1 |
| 333 to 336 | C[C@@H](Nc1ncnc2[nH]c(-c3ccc(C#N)cc3)cc12)c1ccccc1 |
| 136 to 137 | Cc1ccccc1CCC(=O)N(C)C(C)C(O)c1ccccc1 (stereo not drawn) |
| 114 to 117 | Nc1nc(N2CCCC2)c2ncn([C@@H]3C[C@H](CO)[C@@H](O)C3)c2n1 |
| 147 to 148 | S=C(NCCC1=CCCCC1)Nc1nccs1 |
| 54 to 58 | CON(C)C(=O)c1ccc(-c2ccc(C)cc2)o1 |
| 166 | O=C(Cc1ccccc1N1CCCC1)N1C[C@@H]2SCCC(c3ccccc3)(c3ccccc3)[C@@H]2C1 (racemic) |
| 90 to 92 | O=C1O[C@](CCc2cccc(O)c2)(C2CCCC2)CC(O)=C1N(c1ccccc1)c1ccccc1 |
| 189 to 191 | O=C(Oc1ccccc1)N1CCN2C(=O)OC(c3ccccc3)(c3ccccc3)C2C1 (stereo not drawn) |
| 124 to 126 | O=C(O)CCCCCc1c[nH]c2ccccc12 |
| 195 to 197 | Brc1ccc2c(c1)C(c1ccncc1)=Cc1ccccc1O2 |
| 224 to 227 | C#CCn1c(=O)sc2cc(F)c(-n3c(=O)cc(C(F)(F)F)[nH]c3=O)cc21 |
| 109 to 110 | O=C(NC1CCCCC1=Cc1ccccc1)C(F)(F)F (stereo not drawn) |
| 68 to 71 | C=CC(=O)OCCSc1ccc2sc3ccccc3c(=O)c2c1 |
| 239 to 242 | O=[N+]([O-])c1ccc(Oc2ccc(Oc3ccc([N+](=O)[O-])cc3)c(P(=O)(c3ccccc3)c3ccccc3)c2)cc1 |
| 136 to 137 | C=CC(=O)N(C)c1cccc2c(=O)c(C)c(-c3ccccc3)oc12 |
| 276 to 278 | O=C(O)c1ccc2c(c1)S(=O)(=O)c1ccc(Cl)cc1C=C2 |
| 98 to 99 | COC(c1ccc(C)cc1)c1ccccc1Br (stereo not drawn) |
| 220 to 222 | O=C1CCC(N2Cc3c(OCc4ccc(C(=O)NCCN5CCCCC5)cc4)cccc3C2=O)C(=O)N1 (stereo not drawn) |
| 233 to 234 | COCCc1nc2c(N)nc3cc(-c4ccsc4)ccc3c2n1CC(C)(C)O |

| melting point [°C] | SMILES |
| --- | --- |
| 122 to 124 | Cc1ccnc(C)c1NC(=O)NCCCl |
| 65 | CCCCC(=O)Nc1cccc([N+](=O)[O-])c1 |
| 169 to 174 | CC(=O)Nc1cccc(-c2nc3sccn3c2-c2ccnc(N[C@@H]3CCCN(S(=O)(=O)c4ccc(Cl)cc4)C3)n2)c1 |
| 84 to 85 | CCOC1CN(Cc2ccc(OC)cc2)Cc2cc(OC)c(OCc3ccccc3)cc21 (stereo not drawn) |
| 177 to 179 | O=C1N[C@H](Cc2ccc(C(F)(F)F)o2)[C@H](c2ccc(F)cc2)O1 (racemic) |
| 44 to 46 | CC(C)C(C(=O)O)N(Cl)Cl (stereo not drawn) |
| 53 to 54 | Cn1cc(C(=O)F)c(C(F)F)c1 |
| 139 to 140 | O=C(Nc1ccc(OC(F)(F)F)cc1)N1CCOC(c2ccc(Br)s2)=N1 |
| 101 to 105 | Cc1cc(C(C)(C)C)c(O)c(S(=O)(=O)Nc2ccc(C#N)cc2Cl)c1 |
| 126 to 127 | CCCc1c(C(O)C(C)C)c2ccc(C#N)cc2n1Cc1ccccc1Cl (stereo not drawn) |
| 128 to 129 | COc1cccc(CCOc2cccc(-c3cccc(C(=O)NCCNC(=O)OC(C)(C)C)c3)n2)c1 |
| 220 to 224 | O=C(O)C(Cc1ccccc1)Oc1ccc2cc(-c3csc(-c4ccccc4)n3)ccc2c1Br (stereo not drawn) |
| 146 to 148 | COc1cccc(C(=O)Nc2ccc(N3CCOCC3)cc2C(C)=O)c1OC |
| 218 | O=C(NC(Cc1ccc(OCc2ccccc2)cc1)C(=O)O)c1cn2c(-c3ccc(Cl)cc3)cccc2n1 (stereo not drawn) |
| 112 to 116 | CCCc1c(CS(=O)Cc2ccc(-c3nnn[nH]3)cc2)ccc(C(C)=O)c1O (stereo not drawn) |
| 173 to 175 | CN1C(=O)C(c2ccc(OC(F)F)cc2)(c2cccnc2)N=C1N (stereo not drawn) |
| 84 | CCc1cccc(N2C(=S)SCC2(O)CC)n1 (stereo not drawn) |
| 130 | COP(=O)(Cc1ccc(-c2nc3ccccc3s2)cc1)OC |
| 139 to 141 | CCN(CC)Nc1ccc(CN2OCC(C)(C)C2=O)c(Cl)c1 |
| 188 to 189 | COc1cc(OC)c2c(=O)[nH]c(-c3cccc(N4CCN(CC(C)C)CC4)n3)nc2c1 |
| 125 to 126 | Cc1nc(N2CCCC(NCC3CC3)C2=O)sc1C(=O)NCc1ccccc1 (stereo not drawn) |
| 208 to 210 | O=C1c2ccccc2-n2c(nc3ccccc3c2=O)CN1CCc1ccccc1 |
| 165 to 166 | COc1ccc(N2CCN(c3c(C)c(C)c4c(c3C)C(c3cccc5ccccc35)C(C)(C)O4)CC2)cc1 (stereo not drawn) |
| 122 | N#Cc1ccc(CC23CCCN2C(=O)N(c2cc(Cl)cc(Cl)c2N)C3=O)cc1 (stereo not drawn) |
| 159 to 160 | CCCc1nc2c(N)nc3ccccc3c2n1CCOCCCS(=O)(=O)c1ccccc1C |
| 271 to 272 | CC(=O)NC(C(=O)NC(C(=O)NC(Cc1ccccc1)C(O)C(Cc1ccccc1)NC(=O)C(NC(=O)C(NC(C)=O)C(C)C)C(C)C)C(C)C)C(C)C (stereo not drawn) |
| 75.5 to 78 | CN(C)CC(C)(CSC(=S)N(C)C)[N+](=O)[O-] (stereo not drawn) |

More lines, now with the values behind:

| SMILES | melting point [°C] |
| --- | --- |
| CN(C)CCCNC(=O)[C@@H](Cc1ccc(-c2ccccc2)cc1)NC(=O)CC(C)(C)CC(=O)O | 84 to 92 |
| Cc1ccc(-c2csc(-c3ccc(C(=O)O)cc3)n2)cc1 | 289 to 290 |
| CCOC(=O)COc1ccc(C2=CC(=O)CCC2CC)c(Cl)c1Cl (stereo not drawn) | 110 to 112 |
| Cc1cccc2nc(CSc3ncnc4[nH]cnc34)n(-c3ccccc3Cl)c(=O)c12 | 228 to 230 |
| c1ccc(-c2c[nH]nc2-c2ccccc2)cc1 | 150 to 152 |
| CC(C)COc1c(-c2ccc(S(C)(=O)=O)cc2)cnn(-c2ccc(F)cc2)c1=O | 121 to 128 |
| O=c1c(-c2ccc(Cl)cc2)c2c(cn1CO)Sc1ccccc1N2 | > 300 |
| COC1c2ccccc2C(=O)N1CCN1CCC(Cc2c[nH]c3ccc(F)cc23)CC1 (racemic) | 175 |
| CCCNCCCOc1ccc(-c2ccc(C(=O)OCC)cc2)cc1-c1ccc2c(c1)C(C)(C)CCC2(C)C | 120 |
| COC(=O)C1Cc2c([nH]c3ccccc23)C(c2ccc(Cl)c(Cl)c2)N1 (stereo not drawn) | 90 to 92 |
| CCOC(=O)c1cn(-c2nc(N)c(F)cc2F)c2c(F)c(F)c(F)c(F)c2c1=O | 223 to 230 |
| CNC(=O)c1ccc(C(C)(C)CCNC(=O)NCc2ccc(N)nc2)nc1Nc1ccccc1 | 134 |
| C=CCc1cc(Cc2cnc(N)nc2N)c2cccnc2c1OC | 227 to 228 |
| O=C(N[C@H]1CCC[C@@H]1O)C(O)=CC(=O)c1cc(Cc2ccc(F)cc2F)cn(Cc2ccc(F)cc2)c1=O | 85 to 86 |
| CCN(C(C)=O)c1ccc2c(c1)Cc1c-2[nH]c2ccccc12 | 232 |
| O=C(O)CCCCCNC(=O)S[C@@H]1CC(=O)N(Cc2ccc(Oc3ccc(F)cc3)nc2)C1 | 129 to 130 |
| O=C1CCC2(CC2)C(=O)C1 | 116 to 118 |
| Nc1cnc(-c2ccncc2)c(-c2cccc(F)c2)n1 | 221 to 222 |
| COc1cc(C#N)c(N=C(C)N(C)C)cc1OC | 94 to 96 |
| CC(C)c1ccc([N+](=O)[O-])c(C(C)C)c1NC(=O)CN1CCN(CCCSc2nc3ccccc3o2)CC1 | 156 to 158 |
| N#CCc1nnc2n1-c1sc(Cl)cc1C(c1ccccc1Cl)=NC2 | 217 to 220 |
| CCSc1nc(Nc2ccc(F)cc2F)c(C(=O)OC)cc1F | 113 to 114 |

| SMILES | melting point [°C] |
| --- | --- |
| CN1CC(OC(c2ccccc2)c2ccccc2)C1 | 44 to 48 |
| CC(=O)C(C(=O)c1ccccc1)N(C)C (stereo not drawn) | 72 to 74 |
| CCOC(=O)c1cn(N(C)C=O)c2c(F)c(N3CCN(C)CC3)c(F)cc2c1=O | 180 |
| COC(=O)c1ccc2sc3ccccc3c2c1 | 127 to 129 |
| Cc1cc(C)nc(N(C#N)c2ccccc2)n1 | 153 to 154 |
| CC(C)(C)OC(=O)NC(CO)C(c1ccccc1)c1ccccc1 (stereo not drawn) | 95 to 96 |
| CN(C)C=C1CCc2ccn(Cc3ccccc3)c2C1=O | 116 to 118 |
| O=C1NCn2c3ccccc3c(=O)c3cccc1c32 | 250 to 255 |
| C=CC(O)c1cc(OC)c2oc(-c3ccc(O)c(OC)c3)c(C)c2c1 (stereo not drawn) | 164 to 167 |
| O=C(O)C=Cc1ccc(CCNS(=O)(=O)c2ccc(Cl)cc2)cc1 | 85 to 86 |
| Cc1ccc(S(=O)(=O)N(C)c2ccc(Cl)cc2C#N)cc1 | 145 to 147 |
| CC(=O)c1cc(C#N)c(=O)[nH]c1-c1ccncc1 | 255 to 257 |
| CCCCc1nc(Cl)c(C(=O)O)n1Cc1ccc(-c2ccccc2I)cc1 | 175 |
| COC1(c2ccc(Sc3ccc4ccccc4c3)s2)CCOCC1 | 70 |
| O=C(O)Cc1cc(C(=O)c2cccc(Cl)c2)ccc1O | 186 |
| CCc1nc2c(=O)[nH]c(=O)n(C)c2nc1CC | 218 to 222 |
| O=C(OCCN1CCOC1=O)c1ccccc1Nc1ccnc2c(C(F)(F)F)cccc12 | 158 to 160 |
| CCOC(=O)COc1ccc(C(=O)Nc2cccc(F)c2Sc2ccccc2-c2nnn[nH]2)cc1 | 208 to 209 |
| CCOC(=O)c1cc(O)c2c(n1)c(C)cc1c(O)cc(C(=O)OCC)nc12 | 198 to 200 |
| Cc1cc(CCCc2ccc(CO)c(CO)c2)ccc1O | 92 |
| CCOC(=O)c1nn(C)c(-c2ccccc2)c1S(N)(=O)=O | 141 to 144 |
